Measurements as given in US9279105B2, “Enrichment of stem cells from adult tissues” (Board of Supervisors of Louisiana State University And …, priority 2009, dated 2016).

Assays:
Type in all cases: cell-based, rat
DFSCs [1] = experiment: Adipogenesis differentiation of cells surviving DOX, Oil Red O staining; conditions: cells that survived DOX for 4 hours; untreated control DFSCs formed only a few adipocytes
Protocol: To determine the differentiation capabilities of the putative stem cells, DFSCs were subjected to various differentiation procedures. For osteogenesis, cells were cultured for 2 weeks in medium consisting of DMEM-LG, 10% FBS, 50 μg/ml ascorbate-2 phosphate, 10^−8 M dexamethasone, and 10 mM β-glycerophosphate […] as previously described, followed by von Kossa and Alizarin Red staining to assess for mineral deposition (as described in Hung et al., 2002). For adipogenesis, DFSCs were cultured for 2 weeks in medium consisting of DMEM-LG, 10% FBS (Invitrogen Corporation, Carlsbad, Calif., USA), 50 μg/ml ascorbate-2 phosphate (Sigma-Aldrich), 10^−7 M dexamethasone, and 50 μg/ml indomethacin, with a medium change every 3 days (Hung et al., 2002). The cells then were stained with Oil red O to evaluate adipogenesis.
(§1) In another experiment to determine to enrich the populations of stem cells, DFSCs were treated with doxorubicin (DOX), a substrate of BCRP, at concentrations of 0.5, 1 or 2 μM for 1, 2, 4 and 6 hrs. The cells were incubated at 37° C. for the designated duration. […] The number of viable cells was counted in 5 to 10 randomly selected spots (1 mm^2 each) for calculation of the survival rate as the ratio of treatment/control. […]

DFSCs [2] = experiment: Doxorubicin treatment of DFSCs, count of viable cells (survival rate); conditions: DOX 1 μM, incubation increased from 2 to 4 to 6 hours, compared to control without DOX; FIG. 2
Protocol: (§2) Establishment of cell cultures from rat dental follicle: Dental follicles (DF) were surgically removed from the first mandibular molars of Sprague Dawley rat pups at days 5-7 postnatally, and the isolated DF cells then suspended in MEM medium containing 10% newborn calf serum (NCS), 1 mM sodium pyruvate and antibiotics as previously described (Wise et al., 1992). Next, 5 ml of the cell suspension was transferred into a T-25 cell culture flask and incubated overnight to allow the cells to adhere. […]
as §1, with “hrs.” for “hrs. The cells were incubated at 37° C. for the designated duration.”

[3] = system: Abcb1, Prom1, Notch 1, and CD34; experiment: Stem cell marker expression in 4-HC surviving cells by RT-PCR and western blotting; conditions: 4-HC surviving cells compared to the original population; on the average
Protocol: We also tested an ALDH substrate, 4-hydroperoxycyclophosphamide (4-HC), for elimination of non-stem cells in culture. DFSCs were cultured as described above and then treated with 4-HC at the concentrations of 5, 10, 15, 20 and 25 μM in α-MEM medium containing 20% FBS for 48 hours at 37° C. The majority of the cells were killed at a 4-HC concentration greater than 15 μM. The surviving cells then were collected and subjected to cell proliferation, differentiation, and gene expression assays as described above for evaluation of stem cell properties. Putative stem cells surviving from a 4-HC treatment expressed a high level of multiple stem cell markers, including Abcb1, Prom1, Notch 1, and CD34, as determined by RT-PCR and western blotting. On the average, about a 2 to 4-fold increase in expression of these markers was detected in the 4-HC surviving cells as compared to the original population.

[4] = system: dental follicle cells (DFCs; non-stem cells); experiment: 4-HC treatment of dental follicle cells (non-stem cells); conditions: same 4-HC treatment protocol applied to DFCs
DFSCs [5] = experiment: Proliferation of cells surviving 4-HC treatment (flow cytometry analysis)
DFSCs [6] = experiment: 4-HC treatment of DFSCs for elimination of non-stem cells; conditions: 5-25 μM tested, 48 hours at 37° C., α-MEM with 20% FBS
Protocol: as §2
We also tested an ALDH substrate, 4-hydroperoxycyclophosphamide (4-HC), for elimination of non-stem cells in culture. […] Putative stem cells surviving from a 4-HC treatment expressed a high level of multiple stem cell markers, including Abcb1, Prom1, Notch 1, and CD34, as determined by RT-PCR and western blotting. On the average, about a 2 to 4-fold increase in expression of these markers was detected in the 4-HC surviving cells as compared to the original population.

Row | SMILES | adipocyte formation of surviving cells in adipogenesis induction medium (DFSCs [1]) | number of surviving cells (DFSCs [2]) | increase in expression of stem cell markers [3] | survival of cells [4] | proliferation rate of putative stem cells surviving 4-HC (DFSCs [5]; flow cytometry, compared to original cell population not subjected to 4-HC) | effect of 4-HC treatment on proliferation of the cells (DFSCs [5]; surviving cells) | 4-HC concentration at which the majority of the cells were killed (DFSCs [6])
1 | COc1cccc2c1C(=O)c1c(O)c3c(c(O)c1C2=O)C[C@@](O)(C(=O)CO)C[C@@H]3O[C@H]1C[C@H](N)[C@H](O)[C@H](C)O1 [DOX, doxorubicin] | majority of the cells forming Oil Red O positive adipocytes | decreasing |  |  |  |  | 
2 | O=P1(N(CCCl)CCCl)NC(OO)CCO1 (stereo not shown) [4-HC, 4-hydroperoxycyclophosphamide] |  |  | 2 to 4 fold | none of them survived | higher proliferation rate | did not adversely affect | greater than 15 μM
